Results reported in patent US20220331458A1, “AGENTS FOR CLEAVING LABELS FROM BIOMOLECULES IN VIVO” (TAGWORKS PHARMACEUTICALS B.V., priority 2019, published 2022).
Marks after values point to notes of the source that are not given here.

Tests used:
[1] = system: radiolabeled mAb-conjugates; assay: In vitro Label release from radiolabeled mAb-TCO-chelate conjugates incubated with Cleaving Agents (SEC); settings: Label release from TCO derivative 1.8 on trastuzumab, ^111In; 50% mouse plasma in PBS, 37°C, 15-24 h
Procedure: Briefly, mAb solutions in PBS (4 mg/mL final concentration) were added with 15-20 eq of the NHS-derivative (dissolved at 10 mg/mL in DMSO) and the pH was adjusted to 9 with 1M sodium carbonate. The reaction mixtures were incubated at rt in the dark for 2 h then the products were purified by dialysis (20 kDa MW cut-off membranes) in chelex-treated 0.25M NH4OAc pH 5.5.
After 15-24 h incubation the mixtures were analyzed by SEC and the amount of released Label was quantified from the radioactivity elution profile.

[2] = parameters: species or system mice; settings: female, Balb/C nude, mouse, in vivo
Procedure: Blood samples were withdrawn 5 min before and at various times after Cleaving Agent administration and the radioactivity was measured in a gamma-counter.

- decrease of radioactivity circulating in blood [2]: ca. 30%
Structure (SMILES): O=C(O)CCCC(=O)Nc1cccnc1-c1nnc(-c2ncccc2NC(=O)CCCC(=O)O)nn1 [Compound 2.7, 5,5′-((2,2′-(1,2,4,5-Tetrazine-3,6-diyl)bis(pyridine-3,2-diyl))bis(azanediyl))bis(5-oxopentanoic acid)]
- release (%) [1]: 55.3^a %
